Test systems include 786-0 renal; CCRF-CEM leukemia; HCT-116 colon; HCT-15 colon; HL-60(TB) leukemia; K-562 leukemia; MALME-3M melanoma; NCI/ADR-RES ovarian; TK-10 renal; U251 CNS.
What all share (experiment): NCI tumour cell line growth inhibition, 48 h

Values joined by “and” are separate entries in the source; they are usually repeats but may differ in a detail not shown here. Equal values may be shown once.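 Where inhibition never reached the appropriate level, the endpoint shown equals the highest concentration tested. Otherwise, values were interpolated linearly from a five-concentration, 48-hour dose response in 96-well plates. GI50 is the concentration that inhibits growth by half. TGI marks complete inhibition of growth.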

Our source for the GI50 and TGI values is PubChem BioAssay (NCI).

Consider `C(=Nc1ccccc1)C1CCCC[N-]1.C(=Nc1ccccc1)C1CCCC[N-]1.[Cu+2].[O-][Cl+3]([O-])([O-])O` (stereo not given), for which the GI50 is 13.3 µM with 786-0 renal; 6.3 µM in the test with CCRF-CEM leukemia; 7.3 µM with HCT-116 colon; 0.529 µM in the test on HCT-15 colon; 6.26 µM in the test with HL-60(TB) leukemia; 0.745 µM in the test with K-562 leukemia. The GI50 in the test on MALME-3M melanoma was 14 µM; with NCI/ADR-RES ovarian, 8.33 µM; with TK-10 renal, 9.8 µM; in the test with U251 CNS, 10.7 µM. Also, the TGI in the test on 786-0 renal is over 58.7 µM; in the test on CCRF-CEM leukemia, 36.6 µM; with HCT-116 colon it was 28.8 µM; with HCT-15 colon, 9.76 µM; with HL-60(TB) leukemia it was 31.5 µM; in the test on K-562 leukemia, 14.4 µM. For the same compound, the TGI was 33.9 µM with MALME-3M melanoma, 29.7 µM in the test on NCI/ADR-RES ovarian, 32.7 µM with TK-10 renal and 30.4 µM with U251 CNS.

Consider `COc1ccc2c(c1)C(=O)c1c-2n(CCCN)c(=O)c2ccccc12`, for which the GI50 is 0.0196 µM with 786-0 renal; under 0.0129 µM with CCRF-CEM leukemia; under 0.0115 µM in the test with HCT-116 colon; 0.0179 µM in the test with HCT-15 colon; under 0.01 µM with HL-60(TB) leukemia; under 0.01 µM in the test on K-562 leukemia. The GI50 in the test with MALME-3M melanoma is 0.031 µM; with NCI/ADR-RES ovarian it was 0.0992 µM; in the test on TK-10 renal it was 0.116 µM; in the test with U251 CNS it was under 0.0173 µM. Besides, the TGI in the test with 786-0 renal was 0.31 µM; in the test on CCRF-CEM leukemia, under 0.0356 µM; in the test on HCT-116 colon, 0.148 µM; in the test with HCT-15 colon it was 0.265 µM; in the test on K-562 leukemia, 0.187 µM; in the test with MALME-3M melanoma, 0.352 µM. The TGI in the test with NCI/ADR-RES ovarian was 1.95 µM; in the test on TK-10 renal, 0.98 µM; in the test with U251 CNS, 0.271 µM.

For the compound `C=C(Cn1c(=O)c2ccccc2c2ccccc21)c1ccc(C(=O)Nc2ccccc2N)cc1`, the GI50 in the test on 786-0 renal is 5.95 µM; with CCRF-CEM leukemia, 0.466 µM; in the test with HCT-116 colon it was 15.2 µM; in the test with HCT-15 colon, 33.5 µM; in the test on HL-60(TB) leukemia, 0.188 µM; in the test with K-562 leukemia, 0.781 µM. Also, the GI50 in the test with MALME-3M melanoma was 5.19 µM; with NCI/ADR-RES ovarian, 3.78 µM; in the test on TK-10 renal, 33.8 µM; with U251 CNS it was 16.3 µM. Moreover, the TGI is over 100 µM with 786-0 renal; 4.13 µM in the test with CCRF-CEM leukemia; over 100 µM in the test with HCT-116 colon; over 100 µM in the test with HCT-15 colon; over 92.8 µM in the test with MALME-3M melanoma; over 57.8 µM with NCI/ADR-RES ovarian. Further, the TGI with TK-10 renal and in the test with U251 CNS was over 100 µM each time.

Consider `Cc1nc2ccc(CN(C)c3ccc(C(=O)N[C@@H](CCC(=O)O)C(=O)O)s3)cc2c(=O)[nH]1`, for which the TGI in the test on 786-0 renal, with CCRF-CEM leukemia, in the test with HCT-116 colon, in the test on HCT-15 colon, in the test with HL-60(TB) leukemia and with K-562 leukemia was over 100 µM throughout. The TGI in the test on MALME-3M melanoma, in the test on NCI/ADR-RES ovarian, in the test on TK-10 renal and with U251 CNS was over 100 µM each time. Besides, the GI50 with CCRF-CEM leukemia was 0.027 µM; with NCI/ADR-RES ovarian, under 0.0149 µM.

For `O=C(O)CSCc1cccc2ccccc12`, the TGI in the test with 786-0 renal, in the test on CCRF-CEM leukemia, in the test with HCT-116 colon, in the test on HCT-15 colon, in the test on HL-60(TB) leukemia and in the test on K-562 leukemia was over 100 µM each time. Further, the TGI in the test with MALME-3M melanoma, with NCI/ADR-RES ovarian, in the test with TK-10 renal and in the test with U251 CNS was over 100 µM each time.

Take `CC(C)[C@](O)(c1ccc2cc(OC(F)F)c(OC(F)F)cc2c1)c1cn[nH]n1`: the GI50 with 786-0 renal is 17.8 µM and 16.9 µM; in the test with CCRF-CEM leukemia it was 23.8 µM and 24.2 µM; in the test on HCT-116 colon it was 15.2 µM and 15 µM; in the test with HCT-15 colon, 13.9 µM and 14.4 µM; in the test on HL-60(TB) leukemia, 26.8 µM and 25 µM; in the test with K-562 leukemia it was 20.1 µM and 24.8 µM. Moreover, the GI50 in the test on MALME-3M melanoma is 18.4 µM and 21 µM; in the test on NCI/ADR-RES ovarian, 20.1 µM and 21.5 µM; in the test with TK-10 renal, 17 µM and 12.6 µM; with U251 CNS it was 16.5 µM and 16.1 µM. Besides, the TGI in the test with 786-0 renal was 39.4 µM and 39.9 µM; in the test with CCRF-CEM leukemia, 59 µM and 85.1 µM; in the test with HCT-116 colon it was 31.3 µM and 30.2 µM; with HCT-15 colon, 31.5 µM and 31.8 µM; with HL-60(TB) leukemia, 68.5 µM and 75.7 µM; in the test with K-562 leukemia, 66.3 µM and 80.7 µM. The TGI with MALME-3M melanoma is 42.6 µM and 44.7 µM; in the test on NCI/ADR-RES ovarian, 52.8 µM and 53.5 µM; with TK-10 renal it was 38.4 µM and 35.7 µM; with U251 CNS it was 33.5 µM and 32 µM.

As to `CC(C)=CCN=C(N)N`, the TGI in the test on 786-0 renal, in the test on CCRF-CEM leukemia, with HCT-116 colon, in the test with HCT-15 colon, in the test with HL-60(TB) leukemia and in the test on MALME-3M melanoma was over 100 µM each time. Besides, the TGI in the test with NCI/ADR-RES ovarian, in the test on TK-10 renal and in the test on U251 CNS was over 100 µM in each case.

`C=C1C(=O)O[C@H]2[C@H]1CC/C(CNC(=O)/C=C/c1ccc(Br)cc1)=C\CC[C@@]1(C)O[C@@H]21`: the GI50 with 786-0 renal is 1.05 µM; in the test with CCRF-CEM leukemia, 0.354 µM; in the test on HCT-116 colon, 0.667 µM; in the test with HCT-15 colon it was 0.519 µM; with HL-60(TB) leukemia, 0.744 µM; in the test on K-562 leukemia, 0.438 µM. The GI50 is 1.33 µM in the test on MALME-3M melanoma, 2.59 µM in the test with NCI/ADR-RES ovarian, 1.24 µM in the test on TK-10 renal and 1.46 µM with U251 CNS. The TGI in the test with 786-0 renal was 2.45 µM; in the test with CCRF-CEM leukemia, 4.59 µM; in the test on HCT-116 colon, 1.95 µM; in the test on HCT-15 colon, 1.88 µM; in the test on HL-60(TB) leukemia, 7.28 µM; in the test on K-562 leukemia, over 33.4 µM. The TGI with MALME-3M melanoma worked out at 2.78 µM; in the test on NCI/ADR-RES ovarian, 10.5 µM; in the test on TK-10 renal, 2.58 µM; in the test with U251 CNS, 3.09 µM.

Take `CN1CCN(c2ccc(C(=O)Nc3n[nH]c4ccc(Cc5cc(F)cc(F)c5)cc34)c(NC3CCOCC3)c2)CC1`: the GI50 is 1.41 µM and 1.31 µM in the test with 786-0 renal; 2.93 µM and 2.05 µM with CCRF-CEM leukemia; 1.53 µM and 1.36 µM in the test on HCT-116 colon; 1.87 µM and 1.32 µM with HCT-15 colon; 1.83 µM and 1.66 µM with HL-60(TB) leukemia; 1.78 µM and 1.69 µM with K-562 leukemia. For the same compound, the GI50 in the test with MALME-3M melanoma was 1.5 µM; with NCI/ADR-RES ovarian, 4.81 µM and 2.02 µM; with TK-10 renal, 2.35 µM and 1.42 µM; in the test with U251 CNS, 1.64 µM and 1.54 µM. The TGI in the test on 786-0 renal is 2.99 µM and 2.62 µM; in the test with CCRF-CEM leukemia, > 10 µM and 5.16 µM; in the test on HCT-116 colon, 3.27 µM and 2.73 µM; with HCT-15 colon, 6.67 µM and 2.93 µM; with HL-60(TB) leukemia, 4.19 µM and 3.38 µM; in the test with K-562 leukemia it was 4.83 µM and 3.61 µM. Moreover, the TGI with MALME-3M melanoma was 3.01 µM; in the test with NCI/ADR-RES ovarian it was > 10 µM and 4.54 µM; in the test with TK-10 renal, > 10 µM and 2.78 µM; in the test on U251 CNS, 3.29 µM and 2.95 µM.

For `CCCN(CCC)CCCNCc1cc(I)cc(C)c1O`, the GI50 in the test with 786-0 renal is 13.6 µM; with CCRF-CEM leukemia, 1.28 µM; with HCT-116 colon, 7.9 µM; with HCT-15 colon, 15.3 µM; with HL-60(TB) leukemia, 13.8 µM; in the test with K-562 leukemia it was 6.12 µM. Further, the GI50 with MALME-3M melanoma was 16.5 µM; with NCI/ADR-RES ovarian, 15.4 µM; with TK-10 renal, 16.1 µM; in the test on U251 CNS it was 15.9 µM. Moreover, the TGI is 26.4 µM in the test on 786-0 renal; 6.06 µM with CCRF-CEM leukemia; 20.5 µM with HCT-116 colon; 29.7 µM in the test on HCT-15 colon; 29.8 µM in the test on HL-60(TB) leukemia; 19.4 µM with K-562 leukemia. In addition, the TGI in the test on MALME-3M melanoma was determined as 31.5 µM; in the test on NCI/ADR-RES ovarian, 29.8 µM; in the test on TK-10 renal it was 30.6 µM; with U251 CNS, 29.4 µM.

Consider `Nc1ccn(C2OC(CO)C(O)C2F)c(=O)n1` (stereo not given), for which the GI50 was over 5000 µM with 786-0 renal; 1.67 µM with CCRF-CEM leukemia; over 5000 µM in the test with HCT-116 colon; over 5000 µM with HCT-15 colon; 189 µM in the test on HL-60(TB) leukemia; over 5000 µM in the test with K-562 leukemia. The GI50 in the test with MALME-3M melanoma, in the test with TK-10 renal and in the test with U251 CNS was over 5000 µM each time. Further, the TGI in the test on 786-0 renal, with HCT-116 colon, in the test with HCT-15 colon, in the test on K-562 leukemia, in the test with MALME-3M melanoma and with NCI/ADR-RES ovarian was over 5000 µM each time. The TGI with TK-10 renal and with U251 CNS was over 5000 µM each time.

Regarding `Cc1ccc(NCCCN2CCN(CCCNc3ccc(C)c4sc5ccccc5c(=O)c34)CC2)c2c(=O)c3ccccc3sc12`, the TGI in the test on 786-0 renal, in the test on CCRF-CEM leukemia, in the test with HCT-116 colon, in the test on HCT-15 colon, with HL-60(TB) leukemia and with K-562 leukemia was over 100 µM throughout. The TGI with MALME-3M melanoma, in the test on NCI/ADR-RES ovarian and in the test on U251 CNS was over 100 µM each time.

Regarding `CC1[C@@H]2[C@@H](C=C3C4CCC5Cc6nc7c(nc6C[C@@]5(C)C4C[C@H](O)[C@]32CO)CC2CCC3C4=C[C@H]5O[C@@]6(O[C@@](C)(CO)C[C@@H]6O)C(C)[C@@]5(O)[C@]4(C)[C@@H](O)CC3[C@]2(C)C7)O[C@]12CCC(C)(C)O2` (stereo not given in full), the TGI was 0.534 µM with 786-0 renal; 0.406 µM and 1.42 µM in the test on HCT-116 colon; 0.81 µM and 0.626 µM with HCT-15 colon; 0.496 µM in the test on HL-60(TB) leukemia; 0.722 µM and 0.183 µM in the test on MALME-3M melanoma; over 3.65 µM in the test on NCI/ADR-RES ovarian. Besides, the TGI in the test on U251 CNS was 0.0664 µM. The GI50 in the test on CCRF-CEM leukemia was 0.000474 µM; in the test on HCT-15 colon, 0.0744 µM; in the test with MALME-3M melanoma it was 0.00982 µM; in the test on U251 CNS, under 0.000365 µM.
